Measured values published in patent US20200024278A1, “COMPOSITION COMPRISING ANTIBIOTIC COMPOUND AND AN HETEROCYCLIC COMPOUND AND THEIR USE IN PREVENTING OR TREATING BACTERIAL INFECTIONS” (MUTABILIS, priority 2016, published 2020).
Where two headings read alike, the source gives them in different places.

Experiments:
Assay in all cases: MIC, broth microdilution (CLSI), substance alone or ATB combined with compound at 4 or 8 μg/mL
[1] = test system: ECO 190317; type: cell-based, E. coli; details: ECO 190317; for MIC: Escherichia coli
Procedure, shortened: (§1)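 Each strain received 5·10^5 CFU/mL of log-phase cells in ca-MHB over DMSO-spotted compound or compound-antibiotic combinations. After 16-20 h at 35° C, growth was scored visually.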

[2] = test system: ECO UFR39; type: cell-based, E. coli; details: ECO UFR39; for MIC: Escherichia coli
Procedure, shortened: as §1

[3] = test system: KPN 6299; type: cell-based, K. pneumoniae; details: for MIC: Klebsiella pneumoniae
Procedure, shortened: as §1

[4] = test system: KPN BAA-1898; type: cell-based, K. pneumoniae; details: KPN BAA-1898; for MIC: Klebsiella pneumoniae, BAA1898
Procedure, shortened: as §1

[5] = test system: KPN UFR42; type: cell-based, K. pneumoniae; details: KPN UFR42
Procedure, shortened: as §1

[6] = test system: ECL P99; type: cell-based, E. cloacae; details: ECL P99; with Example 1 @8 μg/ml
Procedure, shortened: as §1

[7] = antibiotic alone, read-out: MIC ATB alone

## CC1(C)S[C@@H]2[C@H](NC(=O)[C@H](N)c3ccc(O)cc3)C(=O)N2[C@H]1C(=O)O [AMX, Amoxicillin, reference compound]
[1]; with Example 1 @8 μg/ml
  MIC ATB combined with Example 1 @8 μg/ml: <0.031 µg/mL
[1]; with Example 1 at 8 μg/ml
  MIC ATB combined with Example 1 @8 μg/ml: <0.031 µg/mL
[1]; with Example 7 at 8 μg/ml
  MIC ATB combined with Example 7 @8 μgml: <0.031 µg/mL
[1]; with Example 9 @4 μg/ml
  MIC ATB combined with Example 9 @4 μg/ml: <0.031 µg/mL
[1]; with Example 9 at 4 μg/ml
  MIC ATB combined with Example 9 @4 μg/ml: <0.031 µg/mL
[1]; with Example 11 at 8 μg/ml
  MIC ATB combined with Example 11 @8 μg/ml: <0.031 µg/mL
[1]; with Example 12 at 8 μg/ml
  MIC ATB combined with Example 12 @8 μg/ml: <0.031 µg/mL
[1]; with Example 13 at 8 μg/ml
  MIC ATB combined with Example 13 @8 μg/ml: <0.031 µg/mL
[1]; with Example 14 at 8 μg/ml
  MIC ATB combined with Example 14 @8 μg/ml: <0.031 µg/mL
[1]; with Example 15 at 4 μg/ml
  MIC ATB combined with Example 15 @4 μgml: <0.031 µg/mL
[1]; with Example 16 at 4 μg/ml
  MIC ATB combined with Example 16 @4 μg/ml: <0.031 µg/mL
[1]; [7]
  MIC: > 1020 µg/mL
[1]; substance alone, read-out: MIC
  MIC: > 1020 µg/mL
[2]; with Example 1 @8 μg/ml
  MIC ATB combined with Example 1 @8 μg/ml: <0.031 µg/mL
[2]; with Example 1 at 8 μg/ml
  MIC ATB combined with Example 1 @8 μg/ml: <0.031 µg/mL
[2]; with Example 7 at 8 μg/ml
  MIC ATB combined with Example 7 @8 μgml: <0.031 µg/mL
[2]; with Example 9 @4 μg/ml
  MIC ATB combined with Example 9 @4 μg/ml: <0.031 µg/mL
[2]; with Example 9 at 4 μg/ml
  MIC ATB combined with Example 9 @4 μg/ml: <0.031 µg/mL
[2]; with Example 11 at 8 μg/ml
  MIC ATB combined with Example 11 @8 μg/ml: <0.031 µg/mL
[2]; with Example 12 at 8 μg/ml
  MIC ATB combined with Example 12 @8 μg/ml: <0.031 µg/mL
[2]; with Example 13 at 8 μg/ml
  MIC ATB combined with Example 13 @8 μg/ml: <0.031 µg/mL
[2]; with Example 14 at 8 μg/ml
  MIC ATB combined with Example 14 @8 μg/ml: <0.031 µg/mL
[2]; with Example 15 at 4 μg/ml
  MIC ATB combined with Example 15 @4 μgml: <0.031 µg/mL
[2]; with Example 16 at 4 μg/ml
  MIC ATB combined with Example 16 @4 μg/ml: <0.031 µg/mL
[2]; [7]
  MIC: > 1020 µg/mL
[2]; substance alone, read-out: MIC
  MIC: > 1020 µg/mL
[3]; [7]
  MIC: > 1020 µg/mL
[3]; substance alone, read-out: MIC
  MIC: > 1020 µg/mL
[3]; with Example 1 @8 μg/ml
  MIC ATB combined with Example 1 @8 μg/ml: >32 µg/mL
[3]; with Example 1 at 8 μg/ml
  MIC ATB combined with Example 1 @8 μg/ml: >32 µg/mL
[3]; with Example 7 at 8 μg/ml
  MIC ATB combined with Example 7 @8 μgml: 0.5 µg/mL
[3]; with Example 9 @4 μg/ml
  MIC ATB combined with Example 9 @4 μg/ml: <=0.5 μg/mL
[3]; with Example 9 at 4 μg/ml
  MIC ATB combined with Example 9 @4 μg/ml: <0.031 µg/mL
[3]; with Example 11 at 8 μg/ml
  MIC ATB combined with Example 11 @8 μg/ml: <0.031 µg/mL
[3]; with Example 12 at 8 μg/ml
  MIC ATB combined with Example 12 @8 μg/ml: <0.031 µg/mL
[3]; with Example 13 at 8 μg/ml
  MIC ATB combined with Example 13 @8 μg/ml: 2 µg/mL
[3]; with Example 14 at 8 μg/ml
  MIC ATB combined with Example 14 @8 μg/ml: <0.031 µg/mL
[3]; with Example 15 at 4 μg/ml
  MIC ATB combined with Example 15 @4 μgml: <0.031 µg/mL
[3]; with Example 16 at 4 μg/ml
  MIC ATB combined with Example 16 @4 μg/ml: <0.031 µg/mL
[4]; with Example 1 @8 μg/ml
  MIC ATB combined with Example 1 @8 μg/ml: >32 µg/mL
[4]; with Example 1 at 8 μg/ml
  MIC ATB combined with Example 1 @8 μg/ml: >32 µg/mL
[4]; with Example 7 at 8 μg/ml
  MIC ATB combined with Example 7 @8 μgml: >32 µg/mL
[4]; with Example 9 @4 μg/ml
  MIC ATB combined with Example 9 @4 μg/ml: <0.031 µg/mL
[4]; with Example 9 at 4 μg/ml
  MIC ATB combined with Example 9 @4 μg/ml: <0.031 µg/mL
[4]; with Example 11 at 8 μg/ml
  MIC ATB combined with Example 11 @8 μg/ml: <0.031 µg/mL
[4]; with Example 12 at 8 μg/ml
  MIC ATB combined with Example 12 @8 μg/ml: <0.031 µg/mL
[4]; with Example 13 at 8 μg/ml
  MIC ATB combined with Example 13 @8 μg/ml: >32 µg/mL
[4]; with Example 14 at 8 μg/ml
  MIC ATB combined with Example 14 @8 μg/ml: <0.031 µg/mL
[4]; with Example 15 at 4 μg/ml
  MIC ATB combined with Example 15 @4 μgml: <0.031 µg/mL
[4]; with Example 16 at 4 μg/ml
  MIC ATB combined with Example 16 @4 μg/ml: <0.031 µg/mL
[4]; [7]
  MIC: > 1020 µg/mL
[4]; substance alone, read-out: MIC
  MIC: > 1020 µg/mL
[5]; with Example 1 @8 μg/ml
  MIC ATB combined with Example 1 @8 μg/ml: >32 µg/mL
[5]; with Example 1 at 8 μg/ml
  MIC ATB combined with Example 1 @8 μg/ml: >32 µg/mL
[5]; with Example 7 at 8 μg/ml
  MIC ATB combined with Example 7 @8 μgml: >32 µg/mL
[5]; with Example 9 @4 μg/ml
  MIC ATB combined with Example 9 @4 μg/ml: >32 µg/mL
[5]; with Example 9 at 4 μg/ml
  MIC ATB combined with Example 9 @4 μg/ml: >32 µg/mL
[5]; with Example 11 at 8 μg/ml
  MIC ATB combined with Example 11 @8 μg/ml: <0.031 µg/mL
[5]; with Example 12 at 8 μg/ml
  MIC ATB combined with Example 12 @8 μg/ml: <0.031 µg/mL
[5]; with Example 13 at 8 μg/ml
  MIC ATB combined with Example 13 @8 μg/ml: >32 µg/mL
[5]; with Example 14 at 8 μg/ml
  MIC ATB combined with Example 14 @8 μg/ml: <0.031 µg/mL
[5]; with Example 15 at 4 μg/ml
  MIC ATB combined with Example 15 @4 μgml: <0.031 µg/mL
[5]; with Example 16 at 4 μg/ml
  MIC ATB combined with Example 16 @4 μg/ml: <0.031 µg/mL
[5]; Klebsiella pneumoniae, antibiotic alone, read-out: MIC ATB alone
  MIC: > 256 µg/mL
[6]
  MIC ATB combined with Example 1 @8 μg/ml: <0.031 µg/mL
